The subject of experiment [1] is J774 A.1 cells. The experiment in a line: FACS competition assay: FITC-rBAG3 binding to J774 A.1 cells with BAG3 peptides or F(ab′)2 fragments. It counts as cell-based, murine. The following applies: 14 nM FITC-BAG3, 625 nM of BAG3 peptides. The procedure: (§1) We addressed the functional significance of BAG3 release by cardiomyocytes. […] Therefore we investigated whether BAG3 could interact with blood cells. […] BAG3 binding to macrophages was specifically impaired by competing BAG3 peptides or by BAG3-sequestering F(ab′)2 fragments from anti-BAG3 monoclonal antibodies (Table I). In particular J774 cells were incubated with 14 nM FITC-BAG3 protein and with 625 nM of BAG3 peptides (peptide 1, peptide 2, peptide 3, peptide 4 or scrambled peptide) or with 420 nM of F(ab′)2 fragments from anti-BAG3 monoclonal and polyclonal antibodies (mouse monoclonal AC1, AC2 and rabbit polyclonal TOS2). F(ab′)2 fragments from mouse IgG or F(ab′)2 fragments from rabbit IgG were used as a negative control.
Competition—J774 A.1 cells (2.5×105/100 μl) were incubated with 625 nM of BAG3 peptides (peptide 1, peptide 2, peptide 3, peptide 4 or scrambled peptide) or with 420 nM of F(ab′)2 fragments from anti-BAG3 monoclonal and polyclonal antibodies (mouse monoclonal AC1, AC2 and rabbit polyclonal TOS2) or F(ab′)2 fragments from mouse IgG or F(ab′)2 fragments from rabbit IgG in PBS containing 2% FBS+0.1% NaN3 for 30 min on ice. After incubation the cells were washing with PBS and then were incubated with of FITC-rBAG3 protein (14 nM), in PBS containing 2% FBS+0.1% NaN3 for 30 min at 4° C. in the dark. After washing with PBS, the cells were resuspended in PBS+2% FBS+0.1% NaN3 and analyzed by flow cytometer (BD Biosciences).

The next experiment has as its system HCMa cells. Nature of the experiment: Confocal direct fluorescence, rBAG3-FITC binding to cardiomyocytes. It counts as cell-based, human. Conditions: FIG. 3A, result in words. The source says:
FIG. 3A: Confocal microscopy analysis of direct fluorescence performed for detection of rBAG3-FITC binding to HCMa cells (a, b, c) and J774 A1 cells (d, e, f, g, h, i). BAG3 recombinant protein and purified BSA (albumin from bovine serum purchased from SIGMA) were conjugated to FITC using the FluoroTag FITC Conjugation Kit purchased from SIGMA following the manufacturer instructions. Equal amount of rBAG3-FITC (b, e) and BSA-FITC (h) proteins, calculated following the manufacturer instructions, were added in HCM and J774 A1 culture media with 0.1% NaN3 […] (a, d, g). Cells were analyzed by a Zeiss LSM confocal microscope. Merged images are shown in c, f and i.
We addressed the functional significance of BAG3 release by cardiomyocytes. […]
Cells were cultured on coverslips in six-well plates to 60-70% confluence and equal amount of rBAG3-FITC and BSA-FITC proteins were added in HCMa and J774 A1 culture media with 0.1% NaN3 for 1 h. […] Samples were analyzed using a confocal laser scanning microscope (Zeiss LSM confocal microscope, Germany). […] For production of figures, brightness and contrast of images were adjusted by taking care to leave a light cellular fluorescence background for visual appreciation of the lowest fluorescence intensity features and to help comparison among the different experimental groups. […]

Experiment [2] concerns J774 A.1 cells. The experiment in a line: FACS analysis of FITC-rBAG3 binding to J774 A.1 macrophages. It counts as cell-based, murine. The procedure: FIG. 3B: BAG3 binds macrophages. J774 A1 macrophages (1×10^6 cells/ml) were incubated with different concentration of Fitc-BAG3 protein (7, 14 and 70 nm). FITC-BSA (70 nM) was used as a negative control (grey). Cells fluorescence was analyzed by flow cytometry.
as §1
rBAG3 binding—J774 A.1 cells were blocked with 2% FBS+0.1% NaN3 in PBS for 15 min on ice and incubated (2.5×105/100 μl) with different concentration of FITC-rBAG3 protein (7, 14 and 70 nm) or FITC-BSA (70 nM) in PBS containing 2% FBS+0.1% NaN3 for 30 min at 4° C. in the dark. After washing with PBS, the cells were resuspended in PBS+2% FBS+0.1% NaN3 and analyzed with a FACScan (BD Biosciences) flow cytometer.

In experiment [3] the test system is J774 A1 macrophages. Nature of the experiment: IL-6 release from J774 A1 macrophages (ELISA). It counts as cell-based, murine. Conditions: J774 A1, FIG. 3C panel c. How it is done: FIG. 3C panel c—Analysis of IL-6 release from J774 A1 macrophages incubated with BAG3. J774 A1 cells at 80% confluency macrophages were incubated with control medium, BSA, LPS or recombinant BAG3 for 5 hours. BAG3 peptides (peptide 1, peptide 2, peptide 3, peptide 4 or scrambled peptide) 625 nM were added where indicated to verify their ability to block BAG3 activity. IL-6 production was measured in cell culture medium using an ELISA test. IL-6 concentration was evaluated by comparing the OD of the sample with that of a standard curve of recombinant IL-6. IL6 was measured in supernatant of J774 A.1 cells (5×10^4/in 96-well microplates) treated with LPS (10 ng/ml) or with rBAG3 (14 nM) or BSA (14 nM) for 10 or 20 hours in absence or presence of polymyxin B sulfate (5 μg/ml). After treatment 50 μL of cell culture medium were collected and analyzed in triplicate with a mouse IL6 Kit (eBioscience).
(In an ELISA, binding on a coated surface is turned into a signal by an enzyme label.)

Experiment [4] has as its system J774 A1 macrophages. Nature of the experiment: Cox-2 and iNOS levels in J774 A1 macrophages incubated with BAG3 (western blot). The following applies: BAG3-treated macrophages, 20 hours, FIG. 3C panel a. Format: cell-based, murine. The procedure: FIG. 3C panel a—Analysis of Cox-2 and iNOS levels in J774 A1 macrophages incubated with BAG3. J774 A1 cells at 80% confluency were incubated with control medium, BSA, LPS or rBAG3, for 20 hours. Polymixin was added where indicated to verify that the effects of E. coli-derived rBAG3 were independent from the presence of contaminating endotoxin. Cox-2 and iNOS expression were analyzed in cell lysates by Western blotting. To explore functional consequences of BAG3 binding to macrophages, we tested the effect of recombinant BAG3 on the expression of inducible nitric oxide synthase (iNOS) and cyclooxygenase (Cox)-2 in the cells. As shown in FIG. 3C panel a the levels of those enzymes were enhanced in BAG3-treated macrophages. […] Soluble proteins were collected after a centrifugation at 10,000 g for 15 min and their amount was determined by Bradford assay (Bio-Rad, Hercules, Calif.). […] Immunoreactivity was detected by sequential incubation with horseradish peroxidase-conjugated secondary antibodies purchased from Pierce (Rockford, Ill.) and ECL detection reagents purchased from Amersham Life Sciences Inc. (Arlington Heights, Ill., USA).
Background: In western blotting, separated proteins are transferred to a membrane and probed.

The test system of experiment [5] is J774 A1 macrophages. The experiment in a line: Nitrite release from J774 A1 macrophages (Griess reaction). Format: cell-based, murine. The following applies: J774 A1, 24 hours, FIG. 3C panel b. How it is done:
FIG. 3C panel b—Analysis of nitrite release from J774 A1 macrophages incubated with BAG3. J774 A1 cells at 80% confluency were incubated with control medium, BSA, LPS or rBAG3 for 24 hours. 100 μl of supernatants from each sample were incubated with 100 μl of Griess reagent; the optical density at 550 nm (OD550) was measured with a Beckman DU62 spectrophotometer. Nitrite concentration was evaluated by comparing the OD550 of the sample with that of a standard curve of sodium nitrite. Nitrite content (NO2^−), a stable metabolite of NO released by cells in the culture supernatant, was measured in J774 A.1 cells (5×104/in 96-well microplates) treated with LPS (10 ng/ml) or with rBAG3 (7, 14 and 28 nM) or BSA (28 nM) for 24 hours in absence or presence of polymyxin B sulfate (Sigma-Aldrich, St. Louis, Mo., USA) 5 μg/ml. NO2^− amounts were measured by Griess reaction. Briefly, 100 μL of cell culture medium were mixed with 100 μL of Griess reagent—equal volumes of 1% (w:v) sulphanilamide in 5% (v:v) phosphoric acid and 0.1% (w:v) naphtylethylenediamine-HCl—and incubated at room temperature for 10 min, and then the absorbance was measured at 550 nm in a microplate reader Titertek (Dasit, Cornaredo, Milan, Italy). The amount of NO2- (as μM) in the samples was calculated from a sodium nitrite standard curve.
(Griess reagent forms a coloured azo dye with nitrite.)

In the case of “DRDPLPPGWEIKIDPQ (listed as Homo sapiens) [Pep1, 11]”, in the experiment with J774 A.1 cells [1], the “Competiton assays % inhibition” value is listed as 98.4% and the “Competiton assays % of positive cells (±S.D.)” value is recorded as 0.18 (±0.05) %.
For “FITC-rBAG3: BAG3 recombinant protein conjugated to FITC”, the “binding to the cardiomyocyte surface” value in the experiment with HCMa cells is listed as “did not apparently bind”. Further, the “binding to macrophages of the cell line J774” value in the experiment on J774 A.1 cells [2] (FIG. 3B, result in words) is listed as “bound”. Also, the “FITC-rBAG3 % of positive cells (±S.D.)” value with J774 A.1 cells [2] (J774 cells, flow cytometry) was 15.7 (±0.45) %.
Regarding “recombinant BAG3: E. coli-derived recombinant BAG3 protein; human BAG3 is SEQ ID NO:15”, the “release of interleukin (IL)-6” value with J774 A1 macrophages [3] is “induced the release”. The “expression of inducible nitric oxide synthase (iNOS) and cyclooxygenase (Cox)-2” value in the experiment with J774 A1 macrophages [4] is recorded as “enhanced”. For the same substance, in the experiment on J774 A1 macrophages [5], the release of nitrite entry is listed as “induced the release”.
On to “FITC-BSA: purified albumin from bovine serum conjugated to FITC, negative control”, for which, in the experiment with J774 A.1 cells [2] (J774 cells, flow cytometry, negative control), the “FITC-BSA % of positive cells (±S.D.)” value is 4.04 (±0.06) %.
Turning to “NPSSMTDTPGNPAAP (listed as Homo sapiens) [Pep4, 14]”, in the experiment with J774 A.1 cells [1], the “Competiton assays % inhibition” value is on record as 93.8% and the “Competiton assays % of positive cells (±S.D.)” value is listed as 0.68 (±0.20) %.
In the same order, the values of “DKGKKNAGNAEDPHT (listed as Homo sapiens) [Pep3, 13]” are 47.2% and 5.86 (±0.43) %.
For “SSPKSVATEERAAPS (listed as Homo sapiens) [Pep2, 12]” the same measures were 89.1% and 1.21 (±0.63) %.

The values are drawn from patent publication US10359433B2, “BAG3 as biochemical serum and tissue marker” (BIOUNIVERSA S.R.L., priority 2012, dated 2019).
